Experimental data taken from patent US20260242416A1, “ANTIMICROBIAL PEPTIDES” (priority 2023, published 2026).
Read-outs that look alike come from different tables or passages of the source. Where a SMILES comes first, the peptide text is derived from it.

Experiments:
[1] = test system: E. coli ATCC 25922, Salmonella Enteritidis, S. aureus ATCC 29213; assay: Broth microdilution, panel result (at least one / all strains), Example 2; format: cell-based; parameters: key to inhibitory activity (asterisk): *Indicates inhibitory activity; settings: for inhibitory activity (asterisk): Table 14, against at least one of E. coli ATCC 25922, Salmonella Enteritidis, S. aureus ATCC 29213
Method: The antimicrobial activity of the putative AMPs was determined by a broth microdilution assay as described by the Clinical and Laboratory Standards Institute, with the published adaptations for testing of cationic peptides. Escherichia coli 25922 and Staphylococcus aureus 29213 isolates were purchased from the American Type Culture Collection (ATCC; Manassas, VA, USA). A human clinical isolate of Salmonella enterica serovar Enteritidis was provided by the BC Centre for Disease Control. Bacteria from stocks stored at −80° C. were streaked onto nonselective Columbia blood agar with 5% sheep blood (Oxoid) and incubated overnight at 37° C. Next, 2-4 colonies were streaked onto a new agar plate to ensure uniform health of colonies used in the broth microdilution assay. Isolated colonies were suspended in MHB and the optical density was measured with a spectrophotometer to create an initial inoculum concentration of approximately 1×10^8 cfu/mL. The inoculum was diluted 1:250 to a final concentration of 2-8×10^5 cfu/mL, which was confirmed by performing a Total Viability Count (TVC). The TVC consisted of plating a 1:1000 dilution of the final inoculum on nonselective media and was also used to confirm the health and purity of the inoculum in each trial.
Lyophilized 80 μg peptide aliquots synthesized by GenScript (Piscataway, NJ, USA) were resuspended to 1.28 mg/mL with UltraPure water (Thermo Fisher Scientific, Waltham, MA, USA) and serially diluted in polypropylene 96-well microtiter plates (Greiner Bio-One #650261, Kremsmunster, Austria) from 128 down to 0.5 μg/mL. Two columns per plate were reserved for growth and sterility controls. Inoculum was added to the wells containing the peptide and the growth control. Plates were incubated for 20-24 h at 37° C. The minimum inhibitory concentration (MIC) was determined as the lowest peptide concentration where there was no visible bacterial growth.

[2] = test system: Salmonella enterica serovar Enteritidis (human clinical isolate); format: cell-based
Method in brief: (§1)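 CLSI broth microdilution adapted for cationic peptides, in Mueller-Hinton broth, inoculum 2-8×10^5 cfu/mL. Peptides serially diluted from 128 to 0.5 μg/mL in polypropylene plates, incubated 20-24 h at 37° C. MIC = lowest concentration without visible growth.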

S. aureus ATCC 29213 = format: cell-based, Staphylococcus aureus
Method in brief: as §1

E. coli ATCC 25922 = format: cell-based, Escherichia coli
Method in brief: as §1

[3] = serovar Enteritidis (human clinical isolate)

Structure (SMILES) | MIC (ug/mL) S. Enteritidis [2, 3] | MIC (ug/mL) S. aureus (S. aureus ATCC 29213; ATCC 29213) | MIC (ug/mL) E. coli (E. coli ATCC 25922; ATCC 25922) | further results
CC[C@H](C)[C@H](NC(=O)CN)C(=O)N[C@@H](CC(C)C)C(=O)N[C@@H](CCCNC(=N)N)C(=O)N[C@@H](CO)C(=O)N[C@@H](CC(C)C)C(=O)NCC(=O)N[C@@H](Cc1c[nH]c2ccccc12)C(=O)N[C@H](C(=O)N[C@@H](CCC(N)=O)C(=O)N[C@@H](CCSC)C(=O)N1CCC[C@H]1C(=O)N[C@@H](CCCNC(=N)N)C(=O)N[C@@H](CO)C(=O)N[C@@H](CCCNC(=N)N)C(=O)N[C@@H](CCCNC(=N)N)C(=O)N[C@@H](CCCNC(=N)N)C(=O)N[C@@H](Cc1c[nH]cn1)C(=O)N[C@@H](CCCNC(=N)N)C(=O)O)[C@@H](C)CC [AnFI2, GILRSLGWIQMPRSRRRHR] (H-GILRSLGWIQMPRSRRRHR-OH; N-terminus and C-terminus assumed) |  |  |  | inhibitory activity (asterisk) [1]: 721.* GILRSLGWIQMPRSRRRHR
CC[C@H](C)[C@H](NC(=O)CN)C(=O)N[C@@H](Cc1ccc(O)cc1)C(=O)N[C@H](C(=O)NCC(=O)N[C@@H](CCCNC(=N)N)C(=O)N[C@@H](CC(C)C)C(=O)N[C@@H](CC(C)C)C(=O)N1CCC[C@H]1C(=O)N[C@H](C(=O)N[C@@H](Cc1ccc(O)cc1)C(=O)N[C@H](C(=O)N1CCC[C@H]1C(=O)N[C@@H](CCC(N)=O)C(=O)N1CCC[C@H]1C(=O)N[C@@H](CCCNC(=N)N)C(=O)N1CCC[C@H]1C(=O)N1CCC[C@H]1C(=O)N[C@@H](Cc1c[nH]cn1)C(=O)N1CCC[C@H]1C(=O)N[C@@H](CCCNC(=N)N)C(=O)N[C@@H](CC(C)C)C(=O)N[C@@H](CCCNC(=N)N)C(=O)N[C@@H](CCCNC(=N)N)C(=O)O)[C@@H](C)CC)C(C)C)[C@@H](C)O [ApCe1] (H-GIYTGRLLPVYIPQPRPPHPRLRR-OH; N-terminus and C-terminus assumed) |  |  |  | inhibitory activity (asterisk) [1]: 695.* GIYTGRLLPVYIPQPRPPHPRLRR; spectrum of antimicrobial activity ([1]; panel of E. coli, Salmonella Enteritidis, S. aureus, up to 128 μg/mL): antimicrobial activity against Gram-negative bacterial species but not Gram-positives
CC[C@H](C)[C@H](NC(=O)[C@H](CCCNC(=N)N)NC(=O)[C@@H](NC(=O)[C@@H]1CCCN1C(=O)[C@H](CCCNC(=N)N)NC(=O)[C@@H](NC(=O)[C@@H]1CCCN1C(=O)[C@H](CCC(N)=O)NC(=O)[C@H](CC(C)C)NC(=O)CNC(=O)[C@@H]1CCCN1C(=O)[C@@H]1CCCN1C(=O)[C@@H](NC(=O)[C@H](CCCCN)NC(=O)[C@H](Cc1c[nH]c2ccccc12)NC(=O)[C@H](C)NC(=O)[C@@H](NC(=O)[C@H](C)N)[C@@H](C)O)C(C)C)[C@@H](C)CC)[C@@H](C)CC)C(=O)N[C@@H](CCCNC(=N)N)C(=O)N1CCC[C@H]1C(=O)N[C@@H](CC(C)C)C(=O)N[C@@H](CS)C(=O)NCC(=O)N[C@@H](CC(N)=O)C(=O)N[C@@H](CC(=O)O)C(=O)N[C@@H](CCCCN)C(=O)N[C@@H](CO)C(=O)O [PeNi16] (H-ATAWKVPPGLQPIRPIRIRPLCGNDKS-OH; N-terminus and C-terminus assumed) | >128/>128/>128 ug/mL | >128/>128/>128 ug/mL | >128/>128/>128 ug/mL | 
CC[C@H](C)[C@H](NC(=O)[C@H](C)NC(=O)[C@H](Cc1ccccc1)NC(=O)[C@H](C)NC(=O)[C@H](C)NC(=O)[C@@H](N)C(C)C)C(=O)N[C@H](C(=O)NCC(=O)N[C@@H](CS)C(=O)N[C@@H](CC(C)C)C(=O)N[C@@H](CS)C(=O)N[C@@H](CS)C(=O)N[C@@H](CCCNC(=N)N)C(=O)N[C@@H](CCCNC(=N)N)C(=O)N1CCC[C@H]1C(=O)N[C@@H](CCCNC(=N)N)C(=O)N[C@@H](CCCNC(=N)N)C(=O)O)[C@@H](C)CC [PoRo1, VAAFAIIGCLCCRRPRR] (H-VAAFAIIGCLCCRRPRR-OH; N-terminus and C-terminus assumed) | >128/>128/>128 ug/mL | >128/>128/>128 ug/mL | >128/>128/>128 ug/mL | 
CC[C@H](C)[C@H](NC(=O)CNC(=O)[C@H](CO)NC(=O)[C@H](CC(C)C)NC(=O)[C@H](CC(C)C)NC(=O)CN)C(=O)N[C@@H](CC(C)C)C(=O)NCC(=O)N[C@@H](C)C(=O)NCC(=O)N[C@@H](CCCCN)C(=O)N[C@@H](CCCCN)C(=O)O [RaOm1, GLLSGILGAGKK] (H-GLLSGILGAGKK-OH; N-terminus and C-terminus assumed) |  |  |  | MIC (ug/mL) S. Enteritidis ([2]; Table 14, second value of the cell, three independent experiments, highest concentration tested 128): >128/>128/>128 ug/mL; MIC (ug/mL) S. aureus (S. aureus ATCC 29213; Table 14, third value of the cell, three independent experiments, highest concentration tested 128): >128/>128/>128 ug/mL; MIC (ug/mL) E. coli (E. coli ATCC 25922; Table 14, first value of the cell, three independent experiments, highest concentration tested 128): >128/>128/>128 ug/mL

Now from value to molecule, other results behind:

MIC (ug/mL) S. Enteritidis [2, 3] | MIC (ug/mL) S. aureus (S. aureus ATCC 29213; ATCC 29213) | MIC (ug/mL) E. coli (E. coli ATCC 25922; ATCC 25922) | Structure (SMILES) | further results
>128/>128/>128 ug/mL | >128/>128/>128 ug/mL | >128/>128/>128 ug/mL | N=C(N)NCCC[C@H](NC(=O)[C@H](CCCNC(=N)N)NC(=O)[C@H](CO)NC(=O)[C@H](CCCNC(=N)N)NC(=O)[C@H](Cc1c[nH]cn1)NC(=O)[C@H](CO)NC(=O)[C@H](Cc1c[nH]c2ccccc12)NC(=O)[C@H](CCCNC(=N)N)NC(=O)[C@@H]1CCCN1C(=O)[C@@H](N)CCCNC(=N)N)C(=O)O [PeNi18, RPRWSHRSRR] (H-RPRWSHRSRR-OH; N-terminus and C-terminus assumed) | 
>128/>128/>128 ug/mL | >128/>128/>128 ug/mL | >128/>128/>128 ug/mL | N=C(N)NCCC[C@H](NC(=O)[C@H](CCCNC(=N)N)NC(=O)CNC(=O)[C@H](Cc1ccccc1)NC(=O)[C@@H]1CCCN1C(=O)[C@H](Cc1ccccc1)NC(=O)[C@@H]1CCCN1C(=O)[C@@H](N)Cc1ccccc1)C(=O)O [RaSi2, FPFPFGRR] (H-FPFPFGRR-OH; N-terminus and C-terminus assumed) | 
>128/>128/>128 ug/mL | >128/>128/>128 ug/mL | >128/>128/>128 ug/mL | CC(C)C[C@H](NC(=O)CNC(=O)[C@H](Cc1ccccc1)NC(=O)[C@@H]1CCCN1C(=O)[C@@H](N)C(C)C)C(=O)N[C@@H](CCCCN)C(=O)N1CCC[C@H]1C(=O)N[C@@H](CCCNC(=N)N)C(=O)O [TeRu1, VPFGLKPR] (H-VPFGLKPR-OH; N-terminus and C-terminus assumed) | 
>128/>128/>128 ug/mL | >128/>128/>128 ug/mL | >128/>128/>128 ug/mL | CC(C)C[C@H](NC(=O)[C@H](Cc1ccccc1)NC(=O)[C@H](CC(C)C)NC(=O)[C@H](CCCCN)NC(=O)[C@H](Cc1c[nH]cn1)NC(=O)[C@@H](NC(=O)[C@H](Cc1ccccc1)NC(=O)[C@H](CO)NC(=O)[C@H](CC(C)C)NC(=O)[C@@H](NC(=O)[C@H](C)N)C(C)C)C(C)C)C(=O)N[C@@H](CC(N)=O)C(=O)N[C@@H](Cc1ccccc1)C(=O)N[C@@H](CC(C)C)C(=O)N[C@@H](Cc1c[nH]cn1)C(=O)N[C@H](C(=O)N[C@@H](CC(=O)O)C(=O)N[C@H](C(=O)N[C@@H](CO)C(=O)N[C@@H](CCCCN)C(=O)NCC(=O)N[C@@H](CCCCN)C(=O)N[C@@H](CS)C(=O)N[C@@H](CCCNC(=N)N)C(=O)N[C@@H](C)C(=O)N[C@H](C(=O)N[C@@H](CC(C)C)C(=O)N[C@@H](CCC(N)=O)C(=O)O)[C@@H](C)O)[C@@H](C)O)C(C)C [TeRu3] (H-AVLSFVHKLFLNFLHVDTSKGKCRATLQ-OH; N-terminus and C-terminus assumed) | 
>128/>128/>128 ug/mL | >128/>128/>128 ug/mL | >128/>128/>128 ug/mL | CC[C@H](C)[C@H](NC(=O)[C@@H](N)Cc1ccccc1)C(=O)N[C@@H](CC(C)C)C(=O)N[C@@H](Cc1c[nH]cn1)C(=O)N[C@@H](C)C(=O)N[C@@H](CCCCN)C(=O)N[C@@H](CCCCN)C(=O)N[C@H](C(=O)N[C@@H](CCCNC(=N)N)C(=O)N[C@@H](CO)C(=O)N[C@@H](C)C(=O)N[C@@H](CCCCN)C(=O)O)[C@@H](C)O [VeSi1, FILHAKKTRSAK] (H-FILHAKKTRSAK-OH; N-terminus and C-terminus assumed) | 
